Data taken from patent US9049864B2, “Pyridazinone herbicidal compounds” (Syngenta Limited, priority 2012, dated 2015).

Legend:
Assay in all cases: Post-emergence herbicidal glasshouse test, percentage damage to the plant
Assay type in all cases: in vivo
Conditions in all cases: post-emergence, 1000 g/ha, evaluated after 13 days
Setaria faberi (SETFA) = tested on: Setaria faberi (SETFA)
Experimental: (§1) Seeds of a variety of test species are sown in standard soil in pots:—Solanum nigrum (SOLNI), Amaranthus retoflexus (AMARE), Setaria faberi (SETFA), Alopecurus myosuroides (ALOMY), Echinochloa crus-galli (ECHCG), Ipomoea hederacea (IPOHE). After 8 days cultivation (post-emergence) under controlled conditions in a glasshouse (at 24/16° C., day/night; 14 hours light; 65% humidity), the plants are sprayed with an aqueous spray solution derived from the formulation of the technical active ingredient in acetone/water (50:50) solution containing 0.5% Tween 20 (polyoxyethelyene sorbitan monolaurate, CAS RN 9005-64-5). Compounds are applied at 1000 g/ha. The test plants are then grown in a glasshouse under controlled conditions in a glasshouse (at 24/16° C., day/night; 14 hours light; 65% humidity) and watered twice daily. After 13 days, the test is evaluated for the percentage damage caused to the plant. The biological activities are shown in the following table on a five point scale (5=80-100%; 4=60-79%; 3=40-59%; 2=20-39%; 1=0-19%). A comparative experiment is conducted to compare the biological efficacy of a compound of the present invention with those of WO 2011/045271. The test is performed as outlined above using the following compounds. Three different application rates are employed (250 g/ha, 500 g/ha and 1000 g/ha).

[1] = tested on: Echinochloa crus-galli (ECHCG)
Experimental: as §1

[2] = tested on: Amaranthus retoflexus (AMARE)
Experimental: as §1

Solanum nigrum (SOLNI) = tested on: Solanum nigrum (SOLNI)
Experimental: as §1

[3] = tested on: Ipomoea hederacea (IPOHE)
Experimental: as §1

[4] = tested on: Alopecurus myosuroides (ALOMY)
Experimental: as §1

SMILES | POST Application SETFA, percentage damage (five point scale) (Setaria faberi (SETFA)) | POST Application ECHCG, percentage damage (five point scale) [1] | POST Application AMARE, percentage damage (five point scale) [2] | POST Application SOLNI, percentage damage (five point scale) (Solanum nigrum (SOLNI)) | POST Application IPOHE, percentage damage (five point scale) [3] | POST Application ALOMY, percentage damage (five point scale) [4]
CN1N=C([S+](C)[O-])C(=O)C(n2c(Cl)c(Cl)c3ccccc32)C1=O (stereo not drawn) [Compound 2.005] | 1 (1=0-19%) | 1 (1=0-19%) | 2 (2=20-39%) | 5 (5=80-100%) | 5 (5=80-100%) | 1 (1=0-19%)
CC[S+]([O-])C1=NN(C)C(=O)C(n2c(Cl)c(Cl)c3ccccc32)C1=O (stereo not drawn) [Compound 2.006] | 1 (1=0-19%) | 1 (1=0-19%) | 1 (1=0-19%) | 4 (4=60-79%) | 4 (4=60-79%) | 1 (1=0-19%)
COCC1=NN(C)C(=O)C(n2c(Cl)c(Cl)c3ccccc32)C1=O (stereo not drawn) [Compound 2.008] | 1 (1=0-19%) | 1 (1=0-19%) | 3 (3=40-59%) | 5 (5=80-100%) | 5 (5=80-100%) | 1 (1=0-19%)
CC(C)CC1=NN(C)C(=O)C(n2c(Cl)c(Cl)c3ccccc32)C1=O (stereo not drawn) [Compound 2.009] | 1 (1=0-19%) | 1 (1=0-19%) | 1 (1=0-19%) | 4 (4=60-79%) | 2 (2=20-39%) | 1 (1=0-19%)
CCCCC1=NN(C)C(=O)C(n2c(Cl)c(Cl)c3ccccc32)C1=O (stereo not drawn) [Compound 2.010] | 1 (1=0-19%) | 1 (1=0-19%) | 3 (3=40-59%) | 4 (4=60-79%) | 3 (3=40-59%) | 1 (1=0-19%)
CN1N=C(COCC2CCCCC2)C(=O)C(n2c(Cl)c(Cl)c3ccccc32)C1=O (stereo not drawn) [Compound 2.011] | 1 (1=0-19%) | 1 (1=0-19%) | 2 (2=20-39%) | 4 (4=60-79%) | 5 (5=80-100%) | 1 (1=0-19%)
CN1N=C(COCC(F)(F)F)C(=O)C(n2c(Cl)c(Cl)c3ccccc32)C1=O (stereo not drawn) [Compound 2.012] | 1 (1=0-19%) | 1 (1=0-19%) | 1 (1=0-19%) | 4 (4=60-79%) | 4 (4=60-79%) | 1 (1=0-19%)
CC(C)C1=NN(C)C(=O)C(n2c(Cl)c(Cl)c3ccccc32)C1=O (stereo not drawn) [Compound 2.013] | 1 (1=0-19%) | 1 (1=0-19%) | 3 (3=40-59%) | 4 (4=60-79%) | 2 (2=20-39%) | 1 (1=0-19%)
CC(C)OCC1=NN(C)C(=O)C(n2c(Cl)c(Cl)c3ccccc32)C1=O (stereo not drawn) [Compound 2.014] | 1 (1=0-19%) | 1 (1=0-19%) | 2 (2=20-39%) | 4 (4=60-79%) | 5 (5=80-100%) | 1 (1=0-19%)
COCCOCC1=NN(C)C(=O)C(n2c(Cl)c(Cl)c3ccccc32)C1=O (stereo not drawn) [Compound 2.015] | 1 (1=0-19%) | 1 (1=0-19%) | 2 (2=20-39%) | 4 (4=60-79%) | 5 (5=80-100%) | 1 (1=0-19%)
